Reference: article PMC13534789, “Molecular Glue Degraders Enhance CAPRIN1‐Dependent Lysosomal Degradation of APP and Reduce Amyloid β in Alzheimer's Disease” (Advanced Science, 2026)
Read-outs that look alike come from different tables or passages of the source.

Tests used:
MDR1 (P-gp) = test: MDR1-MDCKII permeability assay; type: in vitro ADME; conditions: dog, MDCK-MDR1, pH 7.4, MDR1-MDCKII
Protocol: (§1) MDR1‐MDCKII assay was processed by Sai Life Sciences Pvt. Ltd. Briefly, MDR1‐MDCKII cells were seeded onto the polycarbonate membranes in the 24‐well insert system at 0.12 × 10^6 cells/well and cultured for 8 days until confluence before being used for the transport studies. Test compounds were diluted with the transport buffer (HPSS with 10 mM HEPES, pH 7.4) from a DMSO stock solution to a concentration of 2 µM (DMSO < 1%) and applied to the apical or basolateral side of the cell monolayer. The plate was incubated for 2.0 h in a CO2 incubator at 37±1°C, with 5% CO2 at saturated humidity without shaking. Permeability was measured in duplicate (n = 2) in both A→B and B→A directions. Loperamide (P‐gp efflux substrate) was tested at 2 µM bidirectionally, Verapamil was used as P‐gp inhibitor. While Atenolol (low permeability marker) and Propranolol (high permeability marker) were tested at 2.00 µM in the A to B direction in duplicate. Test and reference compounds were quantified by LC‐MS/MS analysis based on the peak area ratio of analyte/internal standard (IS). The efflux ratio of each compound was calculated. Permeability measurements were performed in duplicate (n = 2) in both directions, and the summarized permeability values and efflux ratios are presented in Figure 3A. The corresponding experimental data, including bidirectional Papp values, recovery, and variability (%CV), are provided in Table S3, thereby supporting the results shown in Figure 3A. After the transport assay, Lucifer yellow fluorescence rejection assay was performed to confirm the integrity of the cell monolayer.

P-gp (MDR1) = test: MDR1-MDCKII permeability assay; type: in vitro ADME; conditions: dog, MDCK-MDR1, pH 7.4, MDR1-MDCKII, 2 µM, 2.0 h, n = 2; for Papp A→B at 2 h, 2 µM: read-out: Apical to basal (AP-BL) Papp; for Papp B→A at 2 h, 2 µM: read-out: Basal to apical (BL-AP) Papp
Protocol: as §1

CAPRIN1 = target: T1, CAPRIN1 (Homo sapiens, UniProt Q14444); test: SPR, compound onto CAPRIN1 alone; type: binding; conditions: immobilized CAPRIN1
T1 construct: 10xHis (followed by a 3C site) (N); made in house; host or cells: Tni (Hi5) insect cells, baculovirus
T1 sequence (Q14444 whole entry): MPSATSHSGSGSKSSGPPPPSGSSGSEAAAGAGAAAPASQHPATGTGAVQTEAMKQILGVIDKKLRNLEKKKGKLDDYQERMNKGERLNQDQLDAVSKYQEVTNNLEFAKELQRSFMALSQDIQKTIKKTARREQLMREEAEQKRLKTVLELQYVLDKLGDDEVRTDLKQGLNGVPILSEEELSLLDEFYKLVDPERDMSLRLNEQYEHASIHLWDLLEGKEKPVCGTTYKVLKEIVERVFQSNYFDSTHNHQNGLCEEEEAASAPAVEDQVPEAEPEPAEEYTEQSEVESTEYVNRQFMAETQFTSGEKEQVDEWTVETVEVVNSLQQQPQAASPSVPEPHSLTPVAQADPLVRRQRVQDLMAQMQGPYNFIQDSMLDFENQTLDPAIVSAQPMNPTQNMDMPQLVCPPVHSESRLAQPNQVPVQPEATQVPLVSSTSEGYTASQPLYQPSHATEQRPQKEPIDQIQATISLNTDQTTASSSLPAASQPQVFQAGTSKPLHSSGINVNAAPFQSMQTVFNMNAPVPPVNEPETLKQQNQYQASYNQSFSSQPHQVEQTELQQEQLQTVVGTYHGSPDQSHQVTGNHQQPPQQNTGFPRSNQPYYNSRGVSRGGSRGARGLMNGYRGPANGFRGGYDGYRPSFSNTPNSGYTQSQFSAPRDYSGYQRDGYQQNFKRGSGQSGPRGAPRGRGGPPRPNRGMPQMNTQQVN
Protocol: SPR experiments were conducted to investigate the interaction between APP695 and CAPRIN1 proteins using a Biacore T200 instrument (Cytiva). Both proteins were expressed in Tni (Hi5) insect cells and purified to homogeneity via tandem affinity and ion‐exchange. Protein purity and integrity were confirmed by SDS‐PAGE and size‐exclusion chromatography prior to analysis. All experiments were performed in a running buffer consisting of 50 mM HEPES at pH7.0, 100 mM KCl, 10% glycerol, and 0.01% (v/v) Tween‐20 supplemented with 0.1% (w/v) Sarkosyl (pH 7.4). APP695 was serially diluted in running buffer to final concentrations of 15, 5, 1, and 0.3 µM. Chip Preparation: A CM5 sensor chip (Cytiva) was activated using a 1:1 (v/v) mixture of 0.1 M N‐hydroxysuccinimide (NHS) and 0.1 M N‐ethyl‐N′‐(3‐dimethylaminopropyl) carbodiimide (EDC) to generate reactive ester groups. CAPRIN1 was diluted to 50 µg/mL in 10 mM Hepes‐KOH buffer (pH 6.0) and immobilized on the chip surface via standard amine coupling to achieve immobilization. Unreacted sites were blocked with 1 M ethanolamine‐HCl (pH 8.5). A reference flow cell was prepared similarly but without protein immobilization to control for non‐specific binding and bulk refractive index changes. Binding assay: Binding interactions were measured at 25°C with a flow rate of 30 µL/min. […]

[1] = IV and PO pharmacokinetics in mice; type: in vivo, C57BL/6 male mice; conditions: male; for AUC(0-t) / half-life / C0 / Tmax / Cmax: mouse plasma; for C0 / Cmax: read-out: C0/Cmax; for bioavailability: C57BL/6, mouse, plasma, oral, 10 mg/kg, PO 10 mpk vs IV 1 mpk, read-out: %F (oral bioavailability); for bioavailability / clearance / Vd: mouse; for clearance / Vd: C57BL/6, plasma, 1 mg/kg; for Vd: read-out: Vss
Protocol: IV and PO PK in rodents were processed by Sai Life Sciences Pvt. Ltd using 8‐ to 10‐week‐old C57BL/6 male mice following a single intravenous administration at 1 mg/kg and oral administration at 10 mg/kg. A total of eighteen mice (n = 9/group) were divided into two groups as Group 1 and Group 2, with a sparse sampling design (3 mice/time points). Animals in Group 1 were administered intravenously as slow bolus injections through the tail vein at 1 mg/kg dose, and animals in Group 2 were administered through the oral route at 10 mg/kg. For 0043, the formulation vehicle used for IV group was 5% NMP, 10% PG, 5% Solutol HS‐15, and 80% Captisol (10% w/v in RO water), and the formulation used for the PO group was 10% NMP, 10% PG, 10% TPGS, and 70% Captisol (10% w/v in RO water). For 0152, the formulation vehicle used for IV group was 5% DMSO, 20% Solutol HS‐15, and 75% PBS, and the formulation used for PO group was 5% NMP, 10% PG, 5% Solutol HS‐15, and 80% Captisol (10% w/v in RO water). Blood samples (approximately 60 µL) were collected under light isoflurane anesthesia (Surgivet) from retro orbital plexus from a set of three mice at 0.08, 0.25, 0.5, 1, 2, 4, 6, 8 and 24 h for IV and […], 0.5, 1, 2, 4, 6, 8 and 24 h for PO. Immediately after blood collection, plasma was harvested by centrifugation at 10 000 rpm, 10 min at […], and samples were stored at ‐70±10°C until bioanalysis. All samples were processed for analysis by the protein precipitation method and analyzed with a fit‐for‐purpose LC‐MS/MS method (LLOQ = 1.01 ng/mL). The plasma pharmacokinetic parameters were estimated using the non‐compartmental analysis tool of Phoenix WinNonlin software (Ver 8.3).

SUMO1 = SUMO1 protein levels (western / dot blot); type: cell-based, human
[2] = read-out: % Recovery (Overall) - Apical to basal
[3] = read-out: % Recovery (Overall) - Basal to Apical

SMILES | recovery at 2 h, 2 µM (MDR1 (P-gp); [2]) [%] | recovery at 2 h, 2 µM (MDR1 (P-gp); [3]) [%] | efflux ratio at 2 h, 2 µM (P-gp (MDR1)) | Papp A→B at 2 h, 2 µM (P-gp (MDR1)) [×10⁻⁶ cm/s] | Papp B→A at 2 h, 2 µM (P-gp (MDR1)) [×10⁻⁶ cm/s] | Interaction with CAPRIN1 alone (CAPRIN1) | AUC(0-t) ([1]; C57BL/6, 1 mg/kg, IV, 1 mpk) [ng·h/mL] | half-life ([1]; C57BL/6, 1 mg/kg, IV, 1 mpk) [min] | C0 ([1]; C57BL/6, 1 mg/kg, IV, 1 mpk) [ng/mL] | AUC(0-t) ([1]; C57BL/6, 10 mg/kg, PO, 10 mpk) [ng·h/mL] | Tmax ([1]; C57BL/6, 10 mg/kg, PO, 10 mpk) [min] | half-life ([1]; C57BL/6, 10 mg/kg, PO, 10 mpk) [min] | Cmax ([1]; C57BL/6, 10 mg/kg, PO, 10 mpk) [ng/mL] | bioavailability [1] [%] | clearance ([1]; IV, 1 mpk) [mL/min/kg] | Vd ([1]; IV, 1 mpk) [L/kg] | SUMO1 protein levels in cancer cells (SUMO1; HCT116 and LN229 cells) | SUMO1 levels in neuronal cells (SUMO1; AG27606-derived neurons, 10 µM, 3 days)
N#Cc1cccc(NC(=O)Nc2nc3ccc(C(=O)N4CCOCC4)cc3s2)c1 [compound 0043] | 121 | 106 | 114 | 0.4 | 42.6 | no noticeable interaction | 219 | 9.6 | 1380 | 107 | 15 | 95.4 | 97.5 | 5 | 75.3 | 0.77 | no effects | 
COc1cccc(NC(=O)Nc2nc3ccc(C(=O)N4CCOCC4)cc3s2)c1 [compound 0152] | 121 | 141 | 78 | 0.5 | 37.4 | no noticeable interaction | 209 | 25.2 | 938 | 624 | 30 | 144 | 804 | ≤ 30 | 78.6 | 1.34 |  | no appreciable change
